Experiment [1] deals with Candida albicans.
In experiment [2] the test system is Candida albicans. This is another data set of the same source.
For experiment [3], the system named is Escherichia coli. Description: microbe, parasite or virus in culture. Format: functional.
Description: Antibacterial activity against Escherichia coli
The subject of experiment [4] is Bacillus subtilis. Description: microbe, parasite or virus in culture. The settings on record: read-out: IZ. Format: functional.
Description: Antibacterial activity against Bacillus subtilis at 300 ug/ml
Experiment [5] has as its system Staphylococcus aureus. Description: microbe, parasite or virus in culture. Format: functional. The settings on record: read-out: IZ.
Description: Antibacterial activity against Staphylococcus aureus at 300 ug/ml
In experiment [6] the test system is Bacillus subtilis. Description: microbe, parasite or virus in culture. Format: functional.
Description: Antibacterial activity against Bacillus subtilis
Experiment [7] concerns Candida albicans. Description: microbe, parasite or virus in culture. The experiment is classed as functional.
Experiment [8] deals with Escherichia coli. Description: microbe, parasite or virus in culture. The experiment is classed as functional. The settings on record: read-out: IZ.
Description: Antibacterial activity against Escherichia coli at 300 ug/ml
In experiment [9] the test system is Pseudomonas aeruginosa. Description: microbe, parasite or virus in culture. The experiment is classed as functional. The note with it: read-out: IZ.
Description: Antibacterial activity against Pseudomonas aeruginosa at 300 ug/ml
Experiment [10] has as its system Pseudomonas aeruginosa. Description: microbe, parasite or virus in culture. The experiment is classed as functional.
Description: Antibacterial activity against Pseudomonas aeruginosa
For experiment [11], the system named is Candida albicans. Description: Antifungal activity against Candida albicans at 300 ug/ml. The settings on record: read-out: IZ. Format: functional.
In experiment [12] the test system is Staphylococcus aureus. Description: microbe, parasite or virus in culture. Format: functional.
Description: Antibacterial activity against Staphylococcus aureus

In brackets after ≈: the same amount, converted by molar mass.

Regarding NYSTATIN, in experiment [1], the IZ amounted to 28 mm. Also, in experiment [2], the MIC was determined as 100 µg/mL.

As to `COc1ccc(-[n+]2noc([O-])c2Cn2c(-c3ccc(Cl)c(Cl)c3)nc3ccccc32)cc1`, the MIC was 300 µg/mL (≈ 642 µM) in experiment [3]; 200 µg/mL (≈ 428 µM) in experiment [6]; 200 µg/mL (≈ 428 µM) in experiment [7]; 300 µg/mL (≈ 642 µM) in experiment [10]; 300 µg/mL (≈ 642 µM) in experiment [12]. Further, the zone of inhibition at 300 µg/mL in experiment [4] is 12 mm; in experiment [5], 11 mm; in [8], 13 mm; in [9], 14 mm; in experiment [11], 15 mm.

The record behind these values is ChEMBL document CHEMBL3045422, “Synthesis, characterization, and antimicrobial screening of some Mannich base sydnone derivatives” (2013).
